# Measurements from PubChem BioAssay AID2060898 (Molecular Pharmacology Branch, DTP, NCI, 2025).
# Test system: 616215-338-R-J1-PDC complex spheroid viability
# Experiment: Anticancer human tumor 616215-338-R-J1-PDC patient-derived colon adenocarcinoma cell line growth inhibition [RAS]
# Settings: for IC50: curve of first compound; for viability, T/C: stronger effect = lower value
# Description: RAS pathway inhibitors in Combinations in Complex Spheroids
# A high-throughput screen of multi-cell type tumor spheroids was designed to identify active combinations of RAS pathway inhibitors and targeted small molecules. Complex spheroids include a stromal component modeled by human endothelial cells (HUVEC) and fibroblasts modeled by human mesenchymal stem cells (MSCs). The concentration ranges selected for each drug and investigational agent were based upon clinically achievable concentrations if the clinical Cmax of the agent was known.
# Compounds. The drugs and investigational agents: abemaciclib (NSC768073), cobimetinib (NSC768068), divarasib (GDC6063, NSC841802), docetaxel (NSC628503), GDC-1971 (RLY-1971, NSC841576), gemcitabine (NSC613327), inavolisib (NSC800729), ipatasertib (NSC767898), KB-0742 (NSC834161), MRTX-1133 (NSC836407), osimertinib (NSC779217), RMC-4630 (NSC839698), RMC-6236 (NSC851965), RMC-6291 (NSC852671), Ro-3306 (NSC812927), sapanisertib (NSC764658), SN-38 (NSC673596), staurosporine (NSC755774), SY5609 (NSC837396), and tovorafenib (DAY101, NSC766906), were obtained from the National Cancer Institute (NCI) Developmental Therapeutics Program Chemical Repository. The FDA-approved anticancer drug set is available from the NCI Developmental Therapeutics Program. […] The stock solutions were prepared in dimethyl sulfoxide (DMSO, Sigma-Aldrich, St. Louis, MO, cat. D2650) at 800-fold the tested concentration and stored at -70 degrees C prior to their use. All drugs and investigational agents were tested over a range starting from a high concentration at or near the clinical Cmax and decreasing in half-log increments. If the clinical Cmax for an agent had not been determined, the highest concentration tested was 10 microM.
# Cell Culture. All cells were maintained in an incubator at 37 degrees C and 5% CO2 with 95% humidity. The PDC lines were cultured according to standard operating procedures established by the NCI PDMR. All PDCs were thawed and cultured in Matrigel-coated flasks prepared with a working solution of 1X Ham's F-12 nutrient mix, without supplementation (Invitrogen, Waltham, MA, cat. 11765054), 100 U/mL penicillin-streptomycin (Invitrogen, cat. 15140122), and 2.5% Matrigel (Corning Inc., Corning, NY, cat. 354248) for the first three passages. The 362531-283-R-J2-PDC and 782815-120-R-J1-PDC lines were cultured in 6C/Colon 1B media, which includes advanced DMEM/F-12 (Thermo Fisher Scientific, cat. 12634028), 10 mM HEPES (Thermo Fisher Scientific, cat. 15630080), 1X GlutaMAX supplement (Thermo Fisher Scientific, cat. 35050061), 0.1 mg/mL primocin (InvivoGen, San Diego, CA, cat. ant-pm-2), 10% defined fetal bovine serum, heat inactivated (HyClone Laboratories Inc., Logan, UT, cat. SH30070.03HI), 50% L-WRN conditioned media (ATCC, cat. CRL-3276), 1.25 mM N-Acetyl-L-cysteine (Sigma-Aldrich, cat. A9165), 10 mM nicotinamide (Sigma-Aldrich, cat. N0636), 1X B-27 supplement (Thermo Fisher Scientific, cat. 17504044), 1X N-2 supplement (Thermo Fisher Scientific, cat. 17502048), 50 ng/mL human EGF (Thermo Fisher Scientific, cat. PHG0311), and 10 microM Y-27632 dihydrochloride (Tocris Bioscience, cat. 1254). The K12877-001-R-J1-PDC line was cultured in 6I media, which includes all 6C/Colon 1B media plus 10 ng/mL human FGF-10 (PeproTech, cat. 100-26), 1 ng/mL human FGF-2 (PeproTech, cat. 100-18B), 1 µM prostaglandin E2 (Tocris Bioscience, cat. 2296), […] hydrocortisone (Sigma-Aldrich, cat. H4001), and […] bovine insulin (Sigma-Aldrich, cat. I6634). The K86415-001-R-J1-PDC line was cultured in 6D media, which includes all 6C/Colon 1B media components minus the L-WRN conditioned media. The 485176-168-R4-J1-PDC was cultured in PANC media, which includes all 6C/Colon 1B media plus 100 ng/mL human FGF-10 (PeproTech, cat. 100-26), 500 nM SB-431542 (Selleckchem, cat. S1067), and 10 nM gastrin (Tocris Bioscience, cat. 3006). […]
# [1] = second compound 0.0316 µM, first compound 0.0316 µM
# [2] = second compound 0.0316 µM, first compound 0.1 µM
# [3] = second compound 0.0316 µM, first compound 0.316 µM
# [4] = second compound 0.0316 µM, first compound 1 µM
# [5] = second compound 0.0316 µM, first compound 3.16 µM
# [6] = second compound 0.0316 µM, first compound 10 µM
# [7] = second compound 0.1 µM, first compound 0.0316 µM
# [8] = second compound 0.1 µM, first compound 0.1 µM
# [9] = second compound 0.1 µM, first compound 0.316 µM
# [10] = second compound 0.1 µM, first compound 1 µM
# [11] = second compound 0.1 µM, first compound 3.16 µM
# [12] = second compound 0.1 µM, first compound 10 µM
# [13] = second compound 0.316 µM, first compound 0.0316 µM
# [14] = second compound 0.316 µM, first compound 0.1 µM
# [15] = second compound 0.316 µM, first compound 0.316 µM
# [16] = second compound 0.316 µM, first compound 1 µM
# [17] = second compound 0.316 µM, first compound 3.16 µM
# [18] = second compound 0.316 µM, first compound 10 µM
# [19] = second compound 1 µM, first compound 0.0316 µM
# [20] = second compound 1 µM, first compound 0.1 µM
# [21] = second compound 1 µM, first compound 0.316 µM
# [22] = second compound 1 µM, first compound 1 µM
# [23] = second compound 1 µM, first compound 3.16 µM
# [24] = second compound 1 µM, first compound 10 µM
# [25] = second compound 3.16 µM, first compound 0.0316 µM
# [26] = second compound 3.16 µM, first compound 0.1 µM
# [27] = second compound 3.16 µM, first compound 0.316 µM
# [28] = second compound 3.16 µM, first compound 1 µM
# [29] = second compound 3.16 µM, first compound 3.16 µM
# [30] = second compound 3.16 µM, first compound 10 µM
# [31] = second compound 10 µM, first compound 0.0316 µM
# [32] = second compound 10 µM, first compound 0.1 µM
# [33] = second compound 10 µM, first compound 0.316 µM
# [34] = second compound 10 µM, first compound 1 µM
# [35] = second compound 10 µM, first compound 3.16 µM
# [36] = second compound 10 µM, first compound 10 µM
# 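Further: spheroids exposed to agents for seven days before viability readout.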
# 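Wherever viability, T/C is given: 100% = DMSO vehicle control viability.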
compound,measurement,setting,value
Cc1nc(N2CCC3(CC2)COC(C)C3N)c(CO)nc1Sc1ccnc(N)c1Cl (stereo unspecified) + C#Cc1c(F)ccc2cc(O)cc(-c3ncc4c(N5CC6CCC(C5)N6)nc(OCC56CCCN5CC(F)C6)nc4c3F)c12,IC50,second compound 0.0316 µM,> 10000 nM
same,IC50,second compound 0.1 µM,> 10000 nM
same,IC50,second compound 0.316 µM,5230 nM
same,IC50,second compound 1 µM,537 nM
same,IC50,second compound 3.16 µM,302 nM
same,IC50,second compound 10 µM,182 nM
same,"viability, T/C",[1],99.5%
same,"viability, T/C",[2],108%
same,"viability, T/C",[3],116%
same,"viability, T/C",[4],95.2%
same,"viability, T/C",[5],88.5%
same,"viability, T/C",[6],67.8%
same,"viability, T/C",[7],101%
same,"viability, T/C",[8],113%
same,"viability, T/C",[9],104%
same,"viability, T/C",[10],79.6%
same,"viability, T/C",[11],68%
same,"viability, T/C",[12],63.1%
same,"viability, T/C",[13],113%
same,"viability, T/C",[14],116%
same,"viability, T/C",[15],98.3%
same,"viability, T/C",[16],75.3%
same,"viability, T/C",[17],57.7%
same,"viability, T/C",[18],42.1%
same,"viability, T/C",[19],98.2%
same,"viability, T/C",[20],97.2%
same,"viability, T/C",[21],52.7%
same,"viability, T/C",[22],48.5%
same,"viability, T/C",[23],48.2%
same,"viability, T/C",[24],43.7%
same,"viability, T/C",[25],88.8%
same,"viability, T/C",[26],67.9%
same,"viability, T/C",[27],49.2%
same,"viability, T/C",[28],49.9%
same,"viability, T/C",[29],41.2%
same,"viability, T/C",[30],54.1%
same,"viability, T/C",[31],52.2%
same,"viability, T/C",[32],61.4%
same,"viability, T/C",[33],43.8%
same,"viability, T/C",[34],37%
same,"viability, T/C",[35],34.6%
same,"viability, T/C",[36],33%
NC1c2ccccc2OC12CCN(c1cnc3c(N4CCCc5ncccc54)n[nH]c3n1)CC2 (stereo unspecified) + C#Cc1c(F)ccc2cc(O)cc(-c3ncc4c(N5CC6CCC(C5)N6)nc(OCC56CCCN5CC(F)C6)nc4c3F)c12,IC50,second compound 0.0316 µM,4630 nM
same,IC50,second compound 0.1 µM,4730 nM
same,IC50,second compound 0.316 µM,1970 nM
same,IC50,second compound 1 µM,198 nM
same,IC50,second compound 3.16 µM,34.7 nM
same,IC50,second compound 10 µM,< 31.6 nM
same,"viability, T/C",[1],128%
same,"viability, T/C",[2],112%
same,"viability, T/C",[3],75.9%
same,"viability, T/C",[4],81.6%
same,"viability, T/C",[5],67.6%
same,"viability, T/C",[6],29.6%
same,"viability, T/C",[7],123%
same,"viability, T/C",[8],105%
same,"viability, T/C",[9],88.5%
same,"viability, T/C",[10],61.8%
same,"viability, T/C",[11],56.6%
same,"viability, T/C",[12],43.4%
same,"viability, T/C",[13],114%
same,"viability, T/C",[14],84.4%
same,"viability, T/C",[15],63.2%
same,"viability, T/C",[16],55.1%
same,"viability, T/C",[17],49.2%
same,"viability, T/C",[18],32.4%
same,"viability, T/C",[19],88.6%
same,"viability, T/C",[20],59.5%
same,"viability, T/C",[21],43%
same,"viability, T/C",[22],33.8%
same,"viability, T/C",[23],43%
same,"viability, T/C",[24],26.6%
same,"viability, T/C",[25],50.5%
same,"viability, T/C",[26],44.5%
same,"viability, T/C",[27],50.7%
same,"viability, T/C",[28],39%
same,"viability, T/C",[29],35.6%
same,"viability, T/C",[30],35.7%
same,"viability, T/C",[31],40%
same,"viability, T/C",[32],44.4%
same,"viability, T/C",[33],36.2%
same,"viability, T/C",[34],29.5%
same,"viability, T/C",[35],33.4%
same,"viability, T/C",[36],31.6%
Nc1ccn(C2OC(CO)C(O)C2(F)F)c(=O)n1 (stereo unspecified) + C#Cc1c(F)ccc2cc(O)cc(-c3ncc4c(N5CC6CCC(C5)N6)nc(OCC56CCCN5CC(F)C6)nc4c3F)c12,IC50,second compound 0.0316 µM,9.25 nM
same,IC50,second compound 0.1 µM,9.98 nM
same,IC50,second compound 0.316 µM,9.74 nM
same,IC50,second compound 1 µM,5.94 nM
same,IC50,second compound 3.16 µM,3.91 nM
same,IC50,second compound 10 µM,3.26 nM
same,"viability, T/C","second compound 0.0316 µM, first compound 0.00316 µM",113%
same,"viability, T/C","second compound 0.0316 µM, first compound 0.01 µM",44.9%
same,"viability, T/C",[1],24.6%
same,"viability, T/C",[2],13%
same,"viability, T/C",[3],13.2%
same,"viability, T/C",[4],16.3%
same,"viability, T/C","second compound 0.1 µM, first compound 0.00316 µM",117%
same,"viability, T/C","second compound 0.1 µM, first compound 0.01 µM",48.8%
same,"viability, T/C",[7],28.1%
same,"viability, T/C",[8],14.9%
same,"viability, T/C",[9],14.4%
same,"viability, T/C",[10],14.6%
same,"viability, T/C","second compound 0.316 µM, first compound 0.00316 µM",90%
same,"viability, T/C","second compound 0.316 µM, first compound 0.01 µM",48.5%
same,"viability, T/C",[13],28.4%
same,"viability, T/C",[14],15.6%
same,"viability, T/C",[15],13.9%
same,"viability, T/C",[16],14.8%
same,"viability, T/C","second compound 1 µM, first compound 0.00316 µM",77%
same,"viability, T/C","second compound 1 µM, first compound 0.01 µM",24.4%
same,"viability, T/C",[19],26.7%
same,"viability, T/C",[20],12.7%
same,"viability, T/C",[21],10.8%
same,"viability, T/C",[22],12.1%
same,"viability, T/C","second compound 3.16 µM, first compound 0.00316 µM",55.9%
same,"viability, T/C","second compound 3.16 µM, first compound 0.01 µM",24.1%
same,"viability, T/C",[25],19%
same,"viability, T/C",[26],10.6%
same,"viability, T/C",[27],11.6%
same,"viability, T/C",[28],12.1%
same,"viability, T/C","second compound 10 µM, first compound 0.00316 µM",50.9%
same,"viability, T/C","second compound 10 µM, first compound 0.01 µM",21.4%
same,"viability, T/C",[31],16.3%
same,"viability, T/C",[32],12.4%
same,"viability, T/C",[33],10%
same,"viability, T/C",[34],10.9%
